Laboratory results: PubChem BioAssay (NCI)
Where “and” joins values, the source holds several entries; their conditions need not be identical. Equal values may be shown once.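 1) Cells in 96-well plates. 2) Compound, 48 h, 5 concentrations. 3) Linear interpolation between surrounding doses. 4) Unreached endpoint = highest concentration. GI50 = concentration required for 50% inhibition of growth. Definition used: TGI = concentration required for complete inhibition of growth.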

Legend:
Assay in all cases: DTP human tumour cell line panel, 48 h
MDA-MB-231 breast = tested on: MDA-MB-231 breast
MALME-3M melanoma = tested on: MALME-3M melanoma
OVCAR-4 ovarian = tested on: OVCAR-4 ovarian
UACC-62 melanoma = tested on: UACC-62 melanoma
ACHN renal = tested on: ACHN renal
NCI-H522 lung = tested on: NCI-H522 lung
IGROV1 ovarian = tested on: IGROV1 ovarian
SK-MEL-5 melanoma = tested on: SK-MEL-5 melanoma

| SMILES | TGI (MDA-MB-231 breast) | TGI (MALME-3M melanoma) | TGI (OVCAR-4 ovarian) | TGI (UACC-62 melanoma) | TGI (ACHN renal) | TGI (NCI-H522 lung) | TGI (IGROV1 ovarian) | TGI (SK-MEL-5 melanoma) | GI50 (NCI-H522 lung) |
| --- | --- | --- | --- | --- | --- | --- | --- | --- | --- |
| CCCCOCCOCCOC1=CC(=O)c2c(O)ccc(O)c2C1=O | 3.86 µM | 1.49 µM | 3.4 µM | 3.64 µM | 3.2 µM | 2.99 µM | 3.38 µM | 2.25 µM |  |
| CN(C)c1ccc(/C=C/C(=O)c2ccc(O)cc2)cc1 | > 91.5 µM | 51 µM | > 100 µM | 19.3 µM | 61.3 µM | 8.58 µM | > 100 µM | 23.3 µM |  |
| COc1ccc(Nc2nc3ccccc3n3cccc23)cc1OC | 40.1 µM | 32.9 µM |  | 27.4 µM | 69.7 µM | 31.2 µM | 52.3 µM | 24.2 µM |  |
| COc1ccc(C(O)/C(=N/N)c2nc3ccc(Cl)cc3[nH]c2=O)cc1 (stereo unspecified) | > 100 µM | > 100 µM | > 100 µM | > 100 µM | > 100 µM | > 100 µM | > 100 µM | > 100 µM |  |
| CCc1n[nH]c(=O)n1CCCCCCCCn1c(CC)n[nH]c1=O | > 100 µM | > 100 µM | > 100 µM | > 100 µM | > 100 µM | > 100 µM | > 100 µM | > 100 µM |  |
| O=C/C(=C1/C=Cc2cc([N+](=O)[O-])ccc2S1)c1ccccc1 | > 100 µM | > 100 µM | > 100 µM |  | > 100 µM | > 100 µM | > 100 µM | > 100 µM |  |
| Cc1ccc(S(=O)c2cccs2)cc1 (stereo unspecified) |  | > 100 µM |  |  | > 100 µM |  |  |  |  |
| CC1=CC(=O)CC2(C)CCC(C(C)CC(=O)CC(C)C)CC12OO (stereo unspecified) | 29.5 µM and 32.7 µM | > 100 µM and 36.7 µM | 29.8 µM and > 100 µM | 31.9 µM and 35.2 µM | 30.8 µM and 31.4 µM | 19.5 µM and 26.9 µM | 46.6 µM and 31 µM | 35.5 µM and 30.3 µM | 4.8 µM and 12.6 µM |
| O[C@]12C=C(c3nccc4c3[nH]c3ccccc34)[C@@H]3CCN(CCCC/C=C\CC1)C[C@@]31CC3/C=C\CCCCN3[C@H]12 (stereo partly specified) | 1.84 µM | 1.71 µM | > 25.1 µM | 0.159 µM | 1.05 µM | 2.21 µM | 2.28 µM | 0.34 µM |  |
| CC(C)Oc1c(C2(c3ccccc3)SCCCS2)c(=O)c1=O | > 100 µM |  | > 100 µM | > 100 µM | > 100 µM | 97.3 µM | > 100 µM | > 100 µM |  |
| C[C@]12C=CC(=O)C=C1CC[C@@H]1[C@@H]2CC[C@@]2(C)[C@H]1CC[C@]2(O)C(N)=O | > 100 µM | > 100 µM | > 100 µM | > 100 µM | > 100 µM | > 100 µM | > 100 µM | > 100 µM |  |
| Cc1c(C)c2c(c(N)c1C#N)C(=O)N(O)C2=O | > 100 µM | > 100 µM | > 100 µM | > 100 µM | > 100 µM | > 100 µM | > 100 µM | > 100 µM |  |
| CCN(CC)CCCNc1c2c(Cl)cc(Cl)cc2nc2nc(=O)[nH]c(C)c12 | 33.8 µM | > 100 µM | > 100 µM | > 100 µM | > 100 µM | 46.9 µM | > 100 µM | > 100 µM |  |
